Results from patent publication US11198673B2, “Therapeutic compounds and compositions” (eXIthera Pharmaceuticals, Inc., priority 2014, dated 2021).

Columns and labels:
[1] = biological target: T1, human Factor XIa (Homo sapiens, UniProt P03951); experiment: Factor XIa enzyme inhibition assay (IC50, purified enzyme); format: biochemical; settings: purified enzyme 0.25 nM, substrate 50 μM; read-out: Potency hFXIa IC50
T1 construct: Enzyme: Factor XIa; 0.25 μM in 50% glycerol (20 μg/mL)
Method: (§1) • Assay buffer: 20 mM Hepes, pH 7.4; 150 mM NaCl; 0.02% Tween 20 • Compounds: 10 mM stocks in DMSO • Substrate: 20 mM Glp-Pro-Arg-AMC, 25 mg/2.3 mL H2O (store at +4° C.) [Factor XIa, thrombin, and trypsin] • 20 mM Pro-Phe-Arg-AMC (Bachem I-1295), 25 mg/2.2 mL H2O (store at +4° C.) [Factor Xa] • Enzyme: Factor XIa; 0.25 μM in 50% glycerol (20 μg/mL) • Trypsin; 0.2 μM in 50% glycerol (4.8 μg/mL) • Thrombin; 0.2 μM in 50% glycerol (7.34 μg/mL) • Factor Xa; 0.2 μM in 50% glycerol (9.2 μg/mL) • These stocks are aliquoted ([…]) and stored at −20° C. Methods: • 1. Dilute the substrate to 100 μM in assay buffer (30 μL/6 mL). The enzyme is diluted to 0.5 nM just prior to use (12 μL/6 mL for Factor XIa; 15 μL/6 mL for all of the rest.) • 2. Pipette 50 μL of substrate into each well of the 96 well (12×8) microtiter plate. (Column 1 is used as the 100% activity control and receives no compound, and Column 12 is the blank and receives no enzyme.) Add an additional 46 μL to column 2. • 3. Pipette 4 μL of each compound into the appropriate well in column 2 of the plate (unknowns assayed in triplicate, standard assayed in duplicate). The final compound concentration will be 1/50th of the stock. • 4. Serially two-fold dilute the compound by mixing the sample in column 2, removing 50 μL to the next well (column 3), mix and remove to column 4, etc. until column 11. After mixing column 11, remove 50 μL and discard. • 5. Pipette 50 μL of buffer into column 12. Initiate the reaction by adding 50 μL of enzyme solution to each well of columns 1-11 as rapidly as possible. • 6. Read the plate in a spectrophotometer (SpectraMax) at 30° C., wherein each well is measured every 60 s for 30 min. For Factor Xa assays, each well is measured every 1 min for a total of 60 min. • 7. For Factor XIa assays, the compounds are assayed, in duplicate, at 3 different starting concentrations, 20, 2, and 0.2 μM; 1:10, 1:100, and 1:1000 dil'n of 10 mM stock. All data sets are combined for graphing and data fitting. • 8. Data can be used both for estimation of IC50 and for estimation of Kon.
Potential inhibitors of Factor XIa were evaluated using the following assay.
S-2366, pyroGlu-Pro-Arg-7-methylaminocourin (AMC), available from CPC Scientific, Inc., is based on the substrate pyro-Glu-Pro-Arg-pNA, available from Diapharma Group, Inc. (Columbus, Ohio), where the p-nitroanaline group is replaced with 7-methylaminocoumarin (AMC).
The final concentration of the substrate in the assay was 50 μM, and the final concentration of the enzyme was 0.25 nM. Inhibitors were tested by serial dilution over an appropriate range to yield a dose response curve for determination of the inhibitors' IC50 value. The assay mixture was read every minute for 30 minutes in order to generate progress curves. The plates were read in a Spectramax m5 Multimode Plate Reader (Molecular Devices LLC, Sunnyvale, Calif.). Dose response curves were fit to Equation 1 below in which A is the maximum inhibition, B is the minimum inhibition, C is the IC50, and D is the Hill coefficient. [(A−B)/(1+(X/C)^D)]+B (Equation 1)

[2] = biological target: T2, Factor Xa (Homo sapiens, UniProt P00742); experiment: Dose response assay for protease inhibitors: Factor Xa (FXIa fold selectivity); format: biochemical; settings: fold selectivity for FXIa over Factor Xa
T2 construct: Factor Xa; 0.2 μM in 50% glycerol (9.2 μg/mL)
Method: as §1

[3] = biological target: T3, Thrombin (Homo sapiens, UniProt P00734); experiment: Dose response assay for protease inhibitors: thrombin (FXIa fold selectivity); format: biochemical; settings: fold selectivity for FXIa over thrombin
T3 construct: Thrombin; 0.2 μM in 50% glycerol (7.34 μg/mL)
Method: as §1

[4] = system: Trypsin; experiment: Dose response assay for protease inhibitors: trypsin (FXIa fold selectivity); format: biochemical; settings: fold selectivity for FXIa over trypsin
Method: as §1

[5] = β-Lactam stability in rat plasma; format: in vitro ADME; settings: normal rat plasma, room temperature; read-out: Rat Plasma Stability (T1/2; min)
Method: Normal rat plasma, stored at −80° C.
• 1. Place 6 μL of each compound into 0.5 mL microcentrifuge tubes or 96-well U-bottom, polypropylene microtiter plate • 2. Place 40 μL of acetonitrile (AcN) into 0.5 mL microcentrifuge tubes labeled 1-9 • 3. Add 114 μL of plasma to each compound • 4. Sample 10 μL of compound/plasma into AcN at 2, 10, 20, 30, 60, 90, 120, 240, and 480 min of incubation at room temperature • 5. Mix each time point after adding sample and place on ice. • 6. Centrifuge time points (12,000 rpm, 3 min), remove 15 μL of the supernatant and mix with 15 μL 0.1% TFA in a V-bottom microtiter plate. • 7. Place microtiter plate in autosampler of HPLC and analyze on Restek Pinnacle C18 column (2.1×100 mm). • 8. Generate extracted ion chromatogram for parent compound and parent compound+18 (H2O). Integrate extracted ion chromatograms (EIC) and plot % total peak area for parent and adduct versus time. Fit to a model of single phase exponential decay [Y=A0*exp(−k*x)+C]. T½ is equal to ln(2)/k.

T1 sequence (P03951 388-625 limits assumed): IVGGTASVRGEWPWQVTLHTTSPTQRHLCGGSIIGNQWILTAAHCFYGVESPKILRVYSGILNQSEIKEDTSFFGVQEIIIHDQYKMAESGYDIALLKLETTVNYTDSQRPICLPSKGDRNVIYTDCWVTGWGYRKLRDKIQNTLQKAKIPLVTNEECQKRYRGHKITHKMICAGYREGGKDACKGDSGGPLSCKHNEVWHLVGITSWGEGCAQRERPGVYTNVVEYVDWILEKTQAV
T1 sequence (P03951 19-387 partner limits assumed): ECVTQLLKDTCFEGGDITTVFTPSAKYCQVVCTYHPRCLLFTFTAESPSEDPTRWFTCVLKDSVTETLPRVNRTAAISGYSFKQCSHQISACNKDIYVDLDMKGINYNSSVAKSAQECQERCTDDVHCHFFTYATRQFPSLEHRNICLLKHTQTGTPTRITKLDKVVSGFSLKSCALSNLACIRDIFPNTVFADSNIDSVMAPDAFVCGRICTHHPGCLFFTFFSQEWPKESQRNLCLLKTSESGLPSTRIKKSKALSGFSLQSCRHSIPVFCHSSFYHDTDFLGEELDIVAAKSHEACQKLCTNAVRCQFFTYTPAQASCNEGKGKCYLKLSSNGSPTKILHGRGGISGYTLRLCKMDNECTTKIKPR
T2 sequence (P00742 235-488 limits assumed): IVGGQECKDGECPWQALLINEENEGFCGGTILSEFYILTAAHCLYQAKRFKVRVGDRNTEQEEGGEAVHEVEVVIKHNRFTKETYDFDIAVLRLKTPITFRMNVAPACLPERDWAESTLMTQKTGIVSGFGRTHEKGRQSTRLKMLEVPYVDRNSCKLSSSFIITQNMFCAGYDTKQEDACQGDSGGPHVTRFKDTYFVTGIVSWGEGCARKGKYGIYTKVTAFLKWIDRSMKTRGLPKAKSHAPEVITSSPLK
T2 sequence (P00742 41-179 partner limits assumed): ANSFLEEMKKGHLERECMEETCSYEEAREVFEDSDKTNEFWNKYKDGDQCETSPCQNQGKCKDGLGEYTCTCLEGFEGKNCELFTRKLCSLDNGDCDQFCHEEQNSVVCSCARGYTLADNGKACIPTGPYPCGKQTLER

Compound | IC50 [1] | FXIa Fold Selectivity FXa [2] | FXIa Fold Selectivity Thrombin [3] | FXIa Fold Selectivity Trypsin [4] | half-life [5]
C[C@@H](NC(=O)N1C(=O)[C@H](Cc2ccnc(N)c2)[C@H]1C(=O)O)c1cccnc1 [Example 40] | 10 to 100 nM | I (“I” indicates >1000) | I (“I” indicates >1000) | I (“I” indicates >1000) | > 1.67 h
CC(NC(=O)N1C(=O)[C@H](Cc2ccnc(N)c2)[C@H]1C(=O)O)c1cccc(F)c1 (some centres unmarked) [Example 42] | < 10 nM | I (“I” indicates >1000) | I (“I” indicates >1000) | H (“H” indicates 500-1000) | > 1.67 h
Nc1cc(C[C@H]2C(=O)N(C(=O)NCc3cccc4ccccc34)[C@@H]2C(=O)O)ccn1 [Example 43] | 10 to 100 nM | G (“G” indicates 1-500) | G (“G” indicates 1-500) | G (“G” indicates 1-500) | > 1.67 h
Nc1cc(C[C@H]2C(=O)N(C(=O)N[C@@H](c3ccccc3)C(F)(F)F)[C@@H]2C(=O)O)ccn1 [Example 44] | < 10 nM | I (“I” indicates >1000) | I (“I” indicates >1000) | G (“G” indicates 1-500) | > 1.67 h
CC(NC(=O)N1C(=O)[C@H](Cc2ccnc(N)c2)[C@H]1C(=O)O)c1ccc(OC(F)(F)F)cc1 (some centres unmarked) [Example 47] | < 10 nM | I (“I” indicates >1000) | I (“I” indicates >1000) | H (“H” indicates 500-1000) | > 1.67 h
Nc1cc(C[C@H]2C(=O)N(C(=O)NCc3ccccc3)[C@@H]2C(=O)O)ccn1 [Example 48] | 100 to 1000 nM | G (“G” indicates 1-500) | G (“G” indicates 1-500) | G (“G” indicates 1-500) | > 1.67 h
C[C@@H](NC(=O)N1C(=O)[C@H](Cc2ccnc(N)c2)[C@H]1C(=O)O)c1cccc(OC(F)(F)F)c1 [Example 49] | < 10 nM | H (“H” indicates 500-1000) | I (“I” indicates >1000) | G (“G” indicates 1-500) | > 1.67 h
CCCC(CCC)NC(=O)N1C(=O)[C@H](Cc2ccnc(N)c2)[C@H]1C(=O)O [Example 52] | 10 to 100 nM | H (“H” indicates 500-1000) | I (“I” indicates >1000) | G (“G” indicates 1-500) | > 1.67 h
CON=C[C@@H]1[C@@H](Cc2ccnc(N)c2)C(=O)N1C(=O)N[C@H](C)c1ccccc1 [Example 53] | 10 to 100 nM | G (“G” indicates 1-500) | G (“G” indicates 1-500) | G (“G” indicates 1-500) | < 1.67 h
CNC(=O)N1C(=O)[C@H](Cc2ccnc(N)c2)[C@H]1C(=O)O [Example 55] | > 1000 nM | G (“G” indicates 1-500) | G (“G” indicates 1-500) | G (“G” indicates 1-500) | > 1.67 h
C[C@@H](NC(=O)N1C(=O)[C@H](Cc2ccnc(N)c2)[C@H]1C(=O)O)c1ccc(F)c(F)c1 [Example 68] | < 10 nM | G (“G” indicates 1-500) | I (“I” indicates >1000) | I (“I” indicates >1000) | > 1.67 h
CCC[C@@H](NC(=O)N1C(=O)[C@H](Cc2ccnc(N)c2)[C@H]1C(=O)O)c1ccc2c(c1)OC(F)(F)O2 [Example 89] | < 10 nM | G (“G” indicates 1-500) | I (“I” indicates >1000) | G (“G” indicates 1-500) | > 1.67 h
CNc1cc(C[C@H]2C(=O)N(C(=O)N[C@H](C)c3ccc4c(c3)OC(F)(F)O4)[C@@H]2C(=O)O)ccn1 [Example 98] | < 10 nM | G (“G” indicates 1-500) | I (“I” indicates >1000) | I (“I” indicates >1000) | > 1.67 h
CCOC(=O)[C@@H]1[C@@H](Cc2ccnc(NC)c2)C(=O)N1C(=O)N[C@H](C)c1ccc2c(c1)OC(F)(F)O2 [Example 99] | < 10 nM | I (“I” indicates >1000) | I (“I” indicates >1000) | G (“G” indicates 1-500) | < 1.67 h
CCOC(=O)[C@@H]1[C@@H](Cc2ccnc(N)c2)C(=O)N1C(=O)N[C@H](C)c1ccc(OC(F)(F)F)cc1 [Example 103] | < 10 nM | I (“I” indicates >1000) | H (“H” indicates 500-1000) | G (“G” indicates 1-500) | < 1.67 h
C[C@@H](NC(=O)N1C(=O)[C@H](Cc2ccnc(N)c2)[C@H]1C(=O)O)C1CCCCCCC1 [Example 104] | < 10 nM | I (“I” indicates >1000) | I (“I” indicates >1000) | I (“I” indicates >1000) | > 1.67 h
O=C(O)[C@@H]1[C@@H](Cc2ccncc2)C(=O)N1C(=O)NC(c1ccccc1)c1ccccc1 [Example 123] | 100 to 1000 nM | G (“G” indicates 1-500) | G (“G” indicates 1-500) | G (“G” indicates 1-500) | > 1.67 h
C[C@H](NC(=O)N1C(=O)[C@H](Cc2ccnc(N)c2)[C@H]1C(=O)O)c1ccc2c(c1)OC(F)(F)O2 [Example 130] | 100 to 1000 nM | G (“G” indicates 1-500) | G (“G” indicates 1-500) | G (“G” indicates 1-500) | > 1.67 h
CCOC(=O)[C@@H]1C(Cc2ccnc(Cl)c2)C(=O)N1C(=O)N[C@H](C)c1ccc2c(c1)OC(F)(F)O2 (some centres unmarked) [Example 132] | 100 to 1000 nM | G (“G” indicates 1-500) | G (“G” indicates 1-500) | G (“G” indicates 1-500) | < 1.67 h
